What was measured:
IP10 = assay: Cytokine measurement in mouse plasma; assay type: in vivo
Procedure: Cytokine Measurement in Mouse Plasma. Whole blood was drawn into EDTA powder coated tubes by cardiac puncture from mice on day 8 of dosing with Compound 118 (2 hours after the 16th dose) and plasma was prepared by centrifugation. Cytokines in plasma were measured using the Th1/Th2 Cytokine & Chemokine 20-Plex Mouse ProcartaPlex™ Panel 1 (Invitrogen, Carlsbad, Calif.). IP10 levels (pg/mL) in vehicle or Compound 118 treated animals were reported.

[1] = system: Granzyme B+ cells within the CD8+ T cell population; assay: Granzyme B staining of CD8 T cells flow cytometry assay in mouse spleen; assay type: in vivo
Procedure: Granzyme B Staining of CD8 T Cells Flow Cytometry Assay in Mouse Spleen. Mice were sacrificed on day 8 of dosing with Compound 118 (2 hours after the 16th dose) and spleens were excised. Spleens were dissociated with a gentleMACS dissociator (Miltenyi Biotec, Bergisch Gladbach, Germany), red blood cells lysed, and single cell suspensions were prepared. Splenocytes were stained with Zombie UV™ Fixable Viability kit (Biolegend, San Diego, Calif.) diluted in Dulbecco's PBS for 10 minutes at room temperature to exclude dead cells followed by staining for surface markers for 45 minutes on ice using the following flow cytometry antibodies diluted in autoMACS Running Buffer (Miltenyi Biotec, Bergisch Gladbach, Germany): Brilliant Violet 510-labeled anti-CD45, Brilliant Ultraviolet 395-labeled anti-CD3, Brilliant Violet 786-labeled anti-CD4, APC/Cy7-labeled anti-CD8. […] After staining, cells were washed twice with autoMACS Running Buffer, and the samples were acquired on a BD LSRFortessa™ X20 flow cytometers (BD Biosciences, San Jose, Calif.) and analyzed with FLowJo V10 software (FlowJo, Ashland, Oreg.). […]

[2] = system: MC-38 murine colon adenocarcinoma; assay: In vivo efficacy in MC38 mouse tumor model
Procedure: Example 232. In Vivo Efficacy of PTPN2 Inhibitors in MC38 Mouse Tumor Model and Impact on Pharmacodynamic Markers
All experiments were conducted in compliance with AbbVie's Institutional Animal Care and Use Committee and the National Institutes of Health Guide for Care and Use of Laboratory Animals guidelines in a facility accredited by the Association for the Assessment and Accreditation of Laboratory Animal Care. C57Bl/6 female mice were obtained from Charles River (Wilmington, Mass.). The mice were group-housed 10 per cage. Food and water were available ad libitum. Animals were acclimated to the animal facilities for a period of at least one week prior to commencement of experiments. Animals were tested in the light phase of a 12-hour light: 12-hour dark schedule (lights on 0600 hours).
Tumor Cell Inoculation and Treatments.
Cells were grown to passage 3 in vitro. A total of 1×10^5 viable MC-38 cells were inoculated subcutaneously into the right flank of female C57Bl/6 mice (7-12 weeks old) on Day 0. The injection volume was 0.1 mL and was composed of a 1:1 mixture of S-MEM and Matrigel® (Corning, N.Y., USA). […] The mean tumor volume (TV) at size match was approximately 196±64 mm^3. Following size match, treatments were initiated on the same day. Dosing of mice was conducted orally, twice a day (BID) at 7 a.m. and 5 p.m. for 21 days. Mice were dosed (10 mg/kg/dose) with either Compound 118 or vehicle controls (n=15 mice/group). Compound 118 was formulated in 10% ethanol, 30% PEG-400 and 60% Phosal-50PG and was dosed at 10 mL/kg. Tumor volume was calculated three times weekly. Measurements of the length (L) and width (W) of the tumor were taken via electronic caliper and the volume was calculated according to the following equation: V=L×W^2/2 using Study Director Version 3.1.399.22 (Studylog Systems, Inc, CA, USA). Mice were euthanized when tumor volume was […] or skin ulcerations occurred. Tumor growth inhibition (TGI) was calculated as TGI=1−(Mean TVTimepoint(Treatment)/Mean TVTimepoint (Vehicle)) for each timepoint that tumor volumes were measured. Reported TGIMax is the largest TGI value for any timepoint that tumors volumes were collected for that treatment group.

pSTAT5 in CD3+ T cells = assay: pSTAT5 flow cytometry assay in mouse whole blood; assay type: in vivo
Procedure: pSTAT5 Flow Cytometry Assay in Mouse Whole Blood. Whole blood was drawn into EDTA powder coated tubes by cardiac puncture from mice on day 8 of dosing with Compound 118 (2 hours after the 16th dose). 90 μL of whole blood were stimulated with 10 μL of murine IL-2 to achieve a final concentration of 100 ng IL-2/mL (R&D Systems, Minneapolis, Minn., cat #402-ML) for 20 minutes at 37° C., 5% CO2. After stimulation, 1.8 mL of prewarmed BD Phosflow Lyse/Fix Buffer (BD Biosciences, San Jose, Calif.) was added for 20 minutes at 37° C. Cells were washed twice in FACS buffer (Dulbecco's PBS with 0.2% BSA) and incubated for 30 minutes on ice in cold Perm Buffer III (BD Biosciences, San Jose, Calif.). Cells were washed with FACS buffer and resuspended in 50 μL of FACS buffer with antibodies and stained for 3 hours at room temperature with gentle shaking. […] After staining, cells were washed twice with FACS buffer, and the samples were acquired on a BD LSRFortessa™ X20 flow cytometers (BD Biosciences, San Jose, Calif.) and analyzed with FLowJo V10 software (FlowJo, Ashland, Oreg.). The mean fluorescence intensity (MFI) of pSTAT5 as a measure of the amount of phosphorylated STAT5 in the CD3+ T cell population from vehicle or Compound 118 treated animals was reported.

[3] = 10 mg/kg/dose oral BID, day 8 of dosing (2 hours post 16th dose), value ± SEM
[4] = 10 mg/kg/dose oral BID for 21 days

SMILES: CC(C)CCN[C@@H]1CCc2cc(O)c(N3CC(=O)NS3(=O)=O)c(F)c2C1 (single isomer, unassigned) [Compound 118]
- IP10 in plasma (IP10; [3]): 256 ± 30 pg/mL
- IP10 levels in plasma, fold higher than vehicle (IP10; day 8 of dosing): 1.7 fold
- % GzB+ cells within splenic CD8+ T cells [1, 3]: 4.3±0.9%
- frequency of granzyme B producing cells within CD8+ T population in spleen, fold higher than vehicle ([1]; day 8 of dosing): 3.9 fold
- mice that achieved complete cures [2, 4]: 70%
- tolerability [2, 4]: well tolerated, without obvious adverse health events
- Tumor Growth Inhibition (Max) compared to vehicle [%] ([2]; 10 mg/kg/dose oral BID for 21 days, C57Bl/6 mice): 94%
- tumor response observed ([2]; within 7-10 days of treatment): apparent tumor stasis and shrinkage
- pSTAT5 level [MFI] in CD3+ T cells from IL2 stimulated whole blood (pSTAT5 in CD3+ T cells; [3]): 1261±97 MFI
- pSTAT5 levels in whole blood T cells, fold higher than vehicle (pSTAT5 in CD3+ T cells; day 8 of dosing, ex vivo IL2 stimulation): 1.6 fold
